Test system: TNF-α release from monocytes
Format: cell-based
Details: supernatant of human monocytes after overnight incubation; okadaic acid (OA) 50 nM; troglitazone 30 μm; MGSA polymers 50%; ELISA
Description: Human monocytes were isolated from freshly collected buffy coat preparations of whole human blood. Briefly, whole blood was diluted 1:1.33 with sterile phosphate buffered solution (PBS) and layered over Histopaque, which was then centrifuged for 30 minutes at 1500 rpm at room temperature. The interface was harvested and washed with PBS, followed by another centrifugation at 1500 rpm for 10 minutes. A final wash was performed in RPMI 1640 with 10% fetal bovine serum (FBS). Cells were counted using a hemacytometer and seeded at 2.4×10^6 cells/300 μl into a 48-well tissue culture treated plate. Cells were incubated for 1 hour at 37° C., 5% CO2 and non-adherent cells were removed with a PBS wash. 300 μl of RPMI 1640 with 10% FBS was added back to the cells along with the various test conditions; cells in media alone, with DMSO (the vehicle used to reconstitue okadaic acid and troglitazone), with okadaic acid (OA, 50 nM), with OA and troglitazone (30 μm), with OA and monostearyl glyceride succinic anhydride (MGSA)-liquid (3305-15, 50%), and with OA and MGSA-solid (2804-60, 50%). The supernatants were collected after overnight incubation at 37° C., 5% CO2 and later analyzed for TNF-α by ELISA.

Compound	TNF-α [ng/mL]
C=C1[C@@H](O)[C@@H]2O[C@]3(CC[C@H](/C=C/[C@@H](C)[C@@H]4CC(C)=C[C@@]5(O[C@H](C[C@@](C)(O)C(=O)O)CC[C@H]5O)O4)O3)CC[C@H]2O[C@@H]1[C@@H](O)C[C@H](C)[C@H]1O[C@@]2(CCCCO2)CC[C@H]1C [Okadaic Acid, okadaic acid]	575.765
Cc1c(C)c2c(c(C)c1O)CCC(C)(COc1ccc(CC3SC(=O)NC3=O)cc1)O2 (centres unmarked) [Troglitazone]	422.554

Reference: patent US20080138317A1, “Use of biocompatible amphiphilic polymers as an anti-inflammatory agent” (priority 2004, published 2008)
